These results are taken from US20070219234A1, “Thienopyridine Derivatives” (priority 2004, published 2007).

Consider `COc1ccccc1N1CCN(c2ccnc3sc(C(N)=O)c(N)c23)CC1` [Example 53, 3-amino-4-[4-(2-methoxyphenyl)piperazin-1-yl]thieno[2,3-b]pyridine-2-carboxamide], for which the melting point was 294 °C (dec.). In the case of `NC(=O)c1sc2nccc(N3CCN(c4ccccc4Cl)CC3)c2c1N` [Example 54, 3-amino-4-[4-(2-chlorophenyl)piperazin-1-yl]thieno[2,3-b]pyridine-2-carboxamide] it was 294 to 298 °C (dec.); in that of `CC(C)(C)OC(=O)N1CCCN(c2ccnc3sc(C(N)=O)c(N)c23)CC1` [Example 55, tert-butyl 4-[3-amino-2-(aminocarbonyl)thieno[2,3-b]pyridin-4-yl]-1,4-diazepane-1-carboxylate], 177 to 178 °C. Regarding `NC(=O)c1sc2nccc(N3CCCN(Cc4ccccc4)CC3)c2c1N` [Example 56, 3-amino-4-(4-benzyl-1,4-diazepan-1-yl)thieno[2,3-b]pyridine-2-carboxamide], the melting point lay within 194 to 195 °C. `NC(=O)c1sc2nccc(N3CCCN(c4ccc(Cl)cc4)CC3)c2c1N` [Example 60, 3-amino-4-[4-(4-chlorophenyl)-1,4-diazepan-1-yl]thieno[2,3-b]pyridine-2-carboxamide] registered a melting point of 92 to 96 °C. For the compound `NC(=O)c1sc2nccc(N3CCCN(c4ccccc4Cl)CC3)c2c1N` [Example 61, 3-amino-4-[4-(2-chlorophenyl)-1,4-diazepan-1-yl]thieno[2,3-b]pyridine-2-carboxamide], the melting point lay within 206 to 210 °C. Compound `N#Cc1ccc(N2CCCN(c3ccnc4sc(C(N)=O)c(N)c34)CC2)cc1` [Example 62, 3-amino-4-[4-(4-cyanophenyl)-1,4-diazepan-1-yl]thieno[2,3-b]pyridine-2-carboxamide] showed a melting point of 151 to 153 °C. `NC(=O)c1sc2nccc(N3CCCN(c4ccc(C(F)(F)F)cc4)CC3)c2c1N` [Example 63, 3-amino-4-[4-(4-trifluoromethylphenyl)-1,4-diazepan-1-yl]thieno[2,3-b]pyridine-2-carboxamide] came in with a melting point of 204 to 208 °C.

Take `COc1ccccc1N1CCCN(c2ccnc3sc(C(N)=O)c(N)c23)CC1` [Example 67, 3-amino-4-[4-(2-methoxyphenyl)-1,4-diazepan-1-yl]thieno[2,3-b]pyridine-2-carboxamide]: the melting point is 179 to 184 °C. In the case of `Cc1cc(N2CCCN(c3ccnc4sc(C(N)=O)c(N)c34)CC2)ccc1F` [Example 69, 3-amino-4-[4-(4-fluoro-3-methylphenyl)-1,4-diazepan-1-yl]thieno[2,3-b]pyridine-2-carboxamide], the melting point is 194 to 197 °C. In the case of `Cc1ccccc1N1CCCN(c2ccnc3sc(C(N)=O)c(N)c23)CC1` [Example 70, 3-amino-4-[4-(2-toluyl)-1,4-diazepan-1-yl]thieno[2,3-b]pyridine-2-carboxamide], the melting point was 206 to 209 °C (dec.). In the case of `Cc1ccc(N2CCCN(c3ccnc4sc(C(N)=O)c(N)c34)CC2)cc1F` [Example 71, 3-amino-4-[4-(3-fluoro-4-methylphenyl)-1,4-diazepan-1-yl]thieno[2,3-b]pyridine-2-carboxamide] it was 79 to 83 °C; in that of `Cc1cc(N2CCN(c3ccccc3)CC2)c2c(N)c(C(N)=O)sc2n1` [Example 75, 3-amino-6-methyl-4-(4-phenylpiperazin-1-yl)thieno[2,3-b]pyridine-2-carboxamide], 247 to 250 °C; in that of `NC(=O)c1sc2nccc(N3CCCN(c4cccc(Cl)c4)CC3)c2c1N` [Example 78, 3-amino-4-[4-(3-chlorophenyl)-1,4-diazepan-1-yl]thieno[2,3-b]pyridine-2-carboxamide], 213 to 215 °C. Turning to `NC(=O)c1sc2nccc(N3CCCN(c4ccc(OCc5ccccc5)cc4)CC3)c2c1N` [Example 79, 3-amino-4-{4-[4-(benzyloxy)phenyl]-1,4-diazepan-1-yl}thieno[2,3-b]pyridine-2-carboxamide], the melting point lay in the range of 211 to 213 °C.

`NC(=O)c1sc2nccc(N3CCCN(c4cccc([N+](=O)[O-])c4)CC3)c2c1N` [Example 80, 3-amino-4-[4-(3-nitrophenyl)-1,4-diazepan-1-yl]thieno[2,3-b]pyridine-2-carboxamide] returned a melting point of 180 to 185 °C. As to `NC(=O)c1sc2nccc(N3CCCN(c4ccc(F)c(Cl)c4)CC3)c2c1N` [Example 81, 3-amino-4-[4-(3-chloro-4-fluorophenyl)-1,4-diazepan-1-yl]thieno[2,3-b]pyridine-2-carboxamide], the melting point was in the range of 181 to 184 °C. `NC(=O)c1sc2nccc(N3CCCN(c4ccc(Br)cc4)CC3)c2c1N` [Example 82, 3-amino-4-[4-(4-bromophenyl)-1,4-diazepan-1-yl]thieno[2,3-b]pyridine-2-carboxamide] gave a melting point of 170 to 173 °C.

On to `NC(=O)c1sc2nccc(N3CCCN(c4cccc(C(F)(F)F)c4)CC3)c2c1N` [Example 86, 3-amino-4-{4-[3-(trifluoromethyl)phenyl]-1,4-diazepan-1-yl}thieno[2,3-b]pyridine-2-carboxamide], for which the melting point fell in the range of 195 to 197 °C.

Take `NC(=O)c1sc2nccc(N3CCCN(c4ccc(OC(F)(F)F)cc4)CC3)c2c1N` [Example 87, 3-amino-4-{4-[4-(trifluoromethoxy)phenyl]-1,4-diazepan-1-yl}thieno[2,3-b]pyridine-2-carboxamide]: the melting point fell in the range of 163 to 165 °C. The compound `NC(=O)c1sc2nccc(N3CCCN(c4c(F)c(F)nc(F)c4F)CC3)c2c1N` [Example 88, 3-amino-4-[4-(2,3,5,6-tetrafluoropyridin-4-yl)-1,4-diazepan-1-yl]thieno[2,3-b]pyridine-2-carboxamide] had a melting point of 228 to 231 °C.

`NC(=O)c1sc2nccc(N3CCCN(c4ncnc5ccccc45)CC3)c2c1N` [Example 89, 3-amino-4-(4-quinazolin-4-yl-1,4-diazepan-1-yl)thieno[2,3-b]pyridine-2-carboxamide] displayed a melting point of 228 to 231 °C. In the case of `Cc1ccc(N2CCCN(c3ccnc4sc(C(N)=O)c(N)c34)CC2)cc1[N+](=O)[O-]` [Example 90, 3-amino-4-[4-(4-methyl-3-nitrophenyl)-1,4-diazepan-1-yl]thieno[2,3-b]pyridine-2-carboxamide] it was 114 to 117 °C; in that of `CC(C)(C)c1ccc(N2CCCN(c3ccnc4sc(C(N)=O)c(N)c34)CC2)cc1` [Example 92, 3-amino-4-[4-(4-tert-butylphenyl)-1,4-diazepan-1-yl]thieno[2,3-b]pyridine-2-carboxamide], 231 to 232 °C; in that of `Cc1cccc(N2CCN(c3ccnc4sc(C(N)=O)c(N)c34)CC2C)c1` (stereo not drawn) [Example 95, 3-amino-4-[3-methyl-4-(3-methylphenyl)piperazin-1-yl]thieno[2,3-b]pyridine-2-carboxamide], 215 to 217 °C. `NC(=O)c1sc2nccc(N3CCCN(c4ccncc4)CC3)c2c1N` [Example 100, 3-amino-4-(4-pyridin-4-yl-1,4-diazepan-1-yl)thieno[2,3-b]pyridine-2-carboxamide]: the melting point is 288 to 291 °C (dec.). With `CC(=O)N1CCCN(c2ccnc3sc(C(N)=O)c(N)c23)CC1` [Example 103, 4-(4-acetyl-1,4-diazepan-1-yl)-3-aminothieno[2,3-b]pyridine-2-carboxamide], the melting point is 214 to 215 °C.

One may read the melting point as the temperature, or range, at which the solid turns liquid.
